Results published in paper PMC3549755, “A comparison of the ability of rilpivirine (TMC278) and selected analogues to inhibit clinically relevant HIV-1 reverse transcriptase mutants” (Retrovirology, 2012).

Experiments:
[1] = test system: viral vectors that replicate using WT HIV reverse transcriptase; experiment: single-round infectivity assay, luciferase reporter, vector with WT RT; format: cell-based, HIV-1; details: Human immunodeficiency virus 1, broader panel table, SD in parentheses; read-out: EC50 WT (Table S1)
Text: (§1) We examined the effects of rilpivirine and the analogues on HIV-1 replication using a previously described assay and report the concentrations at which luciferase reporter activity was reduced by half relative to uninhibited controls (EC50) with standard deviations in parentheses. In the assay, viral vectors that replicate using WT HIV reverse transcriptase or one of several mutants (L100I, K103N, V106A, E138K, Y181C, Y188L, H221Y and the double mutant K103N/Y181C) were used to infect cells in a single round assay. These mutants were chosen either because they are known NNRTI resistance mutations (L100I, K103N, Y181C, and the K103N/Y181C double mutant), they were selected in patients in rilpivirine clinical trials (E138K and H221Y), or they are positioned to make significant Van der Waals contacts with rilpivirine (V106A and Y188L). All compounds were initially screened against a panel that included at least one RT mutant from all three groups (WT, K103N, E138K, Y181C and Y188L). The cytotoxicity of the compounds was also determined to establish the therapeutic index of each of the compounds.
(§2) Procedures for virion production and cell-based assay have been reported. Briefly, all cell cultures were maintained in Dulbecco’s modified Eagle’s medium (Invitrogen, Carlsbad, CA) with 5% (v/v) fetal bovine serum, 5% newborn calf serum, penicillin (50 units/mL) and streptomycin (50 μg/mL) (Quality Biological, Gaithersburg, MD). […]. Transfected cells were incubated at 37°C for 8 hrs, washed twice with PBS, fresh media was added and the cells were returned to the incubator for 48 hrs. The pNLNgoMIVR^+ΔEnv.LUC plasmid encodes the HIV-1 genome with an Env deletion and either WT HIV-1 RT, or one of the following mutants: L100I, K103N, V106A, E138K, Y181C, Y188L, H221Y, or K103N/Y181C. Supernatants from each plate were clarified by low-speed centrifugation (3,000xg for 20 min), then treated with 200 U DNase I (Roche Applied Science, Mannheim, Germany) at room temperature for 3 hours. Viral supernatants were stored at −20°C until used.
(§3) One day prior to infection, 100 μL of human osteosarcoma (HOS) cells were added to each well of a 96-well plate at a density of 4x10^4 cells/mL. Plates were incubated overnight at 37°C. On the day of infection, 10X drug stocks were prepared by serial dilution in media from an initial 10 mM stock solution in DMSO. Cells in the 96-well plate were pre-treated by the addition of 22 μL of the appropriate drug stock and returned to the incubator for 3 hours. Thawed virus stocks were diluted 1:2 in media, then 100 μL of virus was added to the pre-treated cells, bringing the final drug concentrations to 0.1 nM to 100 nM, with DMSO-treated cells (no drug) serving as a reference. In addition, 12 wells of cells treated with media and no virus served as negative controls. Plates were returned to the incubator for an additional 42 hours, at which time the luciferase activity was determined using Steady-Lite Plus kits (PerkinElmer, Waltham, MA). Background luciferase activity, as measured for the negative controls, was subtracted from the activities measured for each infected well. Drug-free, DMSO-treated wells were normalized to 100% infectivity. Infectivity at each drug concentration was determined as a percentage of these drug-free infections. Drug concentration versus percent infectivity was plotted for each RT-inhibitor combination, and the data were fit to a four-parameter sigmoidal curve using KaleidaGraph 4.0 (Synergy Software, Reading, PA). The inflection point of each curve is reported as the IC50. All values are the mean of triplicate infections.

[2] = test system: viral vector with K103N mutant HIV-1 RT; experiment: single-round infectivity assay, luciferase reporter, K103N RT vector; format: cell-based; details: Human immunodeficiency virus 1; HOS cells, reduction of luciferase reporter activity, SD in parentheses
Text: as §1, §2, §3

[3] = test system: viral vector with E138K mutant HIV-1 RT; experiment: single-round infectivity assay, luciferase reporter, E138K RT vector; format: cell-based; details: for EC50: Human immunodeficiency virus 1, HOS cells, reduction of luciferase reporter activity, SD in parentheses
Text: as §1, §2, §3

[4] = test system: viral vector with Y181C mutant HIV-1 RT; experiment: single-round infectivity assay, luciferase reporter, Y181C RT vector; format: cell-based; details: Human immunodeficiency virus 1; HOS cells, reduction of luciferase reporter activity, SD in parentheses
Text: as §1, §2, §3

[5] = test system: viral vector with Y188L mutant HIV-1 RT; experiment: single-round infectivity assay, luciferase reporter, Y188L RT vector; format: cell-based; details: Human immunodeficiency virus 1; HOS cells, reduction of luciferase reporter activity, SD in parentheses
Text: as §1, §2, §3

[6] = test system: viral vector with L100I mutant HIV-1 RT; experiment: single-round infectivity assay, luciferase reporter, L100I RT vector; format: cell-based; details: Human immunodeficiency virus 1; broader panel, SD in parentheses
Text: as §1, §2, §3

[7] = test system: viral vector with V106A mutant HIV-1 RT; experiment: single-round infectivity assay, luciferase reporter, V106A RT vector; format: cell-based; details: Human immunodeficiency virus 1; broader panel, SD in parentheses
Text: as §1, §2, §3

[8] = test system: viral vector with H221Y mutant HIV-1 RT; experiment: single-round infectivity assay, luciferase reporter, H221Y RT vector; format: cell-based; details: Human immunodeficiency virus 1; broader panel, SD in parentheses
Text: as §1, §2, §3

[9] = test system: viral vector with K103N/Y181C double mutant HIV-1 RT; experiment: single-round infectivity assay, luciferase reporter, K103N/Y181C RT vector; format: cell-based; details: for EC50: Human immunodeficiency virus 1, broader panel, SD in parentheses; for fold resistance / loss of potency against K103N/Y181C double mutant: relative to WT
Text: as §1, §2, §3

[10] = cytotoxicity assay (ATP-Lite cell viability); format: cell-based, human; details: human, HOS cells, 48 hours, SD in parentheses
Description: (§4) One day prior to treatment, HOS cells were prepared in 96-well plates as described for the infectivity assays, except that 12 wells per plate were treated with cell-free media to serve as negative controls. The following day, serial dilutions of drug stocks were prepared in media from 10 mM stocks in DMSO. Each well received 11 μL of the appropriate drug concentration or DMSO-treated, drug-free media. Final drug concentrations ranged from 0.5 μM to 300 μM. The drug-free wells served as references. Plates were then incubated at 37°C for 48 hours. Cell viability was determined using luciferase reporter ATP-Lite kits (PerkinElmer). As described for the infectivity assays, drug-free reference wells were normalized to 100%, and viabilities at different drug concentrations were determined as a percentage of these references. Data were plotted and analyzed in the same manner as the IC50 data, with the inflection points of the curves reported as CC50.

[11] = test system: HOS cells; experiment: cytotoxicity assay (ATP-Lite cell viability); format: cell-based, human; details: for Therapeutic Index (T.I.): ratio of CC50/EC50 (WT); for CC50: HOS cells, 48 hours, SD in parentheses
Description: as §4

Compound | EC50 [1] | EC50 [2] | EC50 [3] | EC50 [4] | EC50 [5] | EC50 [6] | EC50 [7] | EC50 [8] | EC50 fold greater than that of 7 against K103N/Y181C [9] | EC50 [9] | fold resistance / loss of potency against K103N/Y181C double mutant [9] | CC50 at 48 h [10] | Therapeutic Index (T.I.) [11] | loss of potency against E138K ([3]; compared with rilpivirine (1)) | CC50 [11]
Cc1cc(/C=C/C#N)cc(C)c1Nc1ncc(N)c(Nc2ccc(C#N)cc2)n1 [Analogue 9] | 0.7 nM | 0.7 nM | 2.6 nM | 4.6 nM | 18 nM | 0.5 nM | 0.9 nM | 2.8 nM | ~ 21 fold | 47 nM | ~ 67 fold | 19000 nM | 2.7x10^4 |  | 
Cc1cc(/C=C/C#N)cc(C)c1Nc1nc(Nc2ccc(C#N)cc2)c2nc[nH]c2n1 [Analogue 13] | 0.9 nM | 0.4 nM | 4.2 ± 0.3 nM | 1.4 nM | 2 nM | 0.1 nM | 0.5 nM | 1.3 nM |  | 2.9 nM |  | 15000 nM | 1.7x10^4 | four- to fourteen-fold | 
Cc1cc(/C=C/C#N)cc(C)c1Nc1nc(Nc2ccc3ncsc3c2)c2nc[nH]c2n1 [Analogue 20] | 0.2 nM | 0.1 nM | 0.8 nM | 1 nM | 19 nM | 0.2 nM | 2.1 nM | 1.1 nM |  | 60 nM |  | 2000 nM | 1.0x10^4 |  | 
Cc1cc(/C=C/C#N)cc(C)c1Nc1nc(Nc2ccc3scnc3c2)c2nc[nH]c2n1 [Analogue 21] | 0.1 nM | 0.6 nM | 1.5 nM | 1 nM | 4.4 nM | 0.6 nM | 4.6 nM | 0.6 nM |  | > 100 nM | > 1000 fold | 38000 nM | 3.8x10^5 |  | > 38000 nM
Cc1cc(/C=C/C#N)cc(C)c1Nc1ncc2ncn(-c3ccc(C#N)cc3)c2n1 [Analogue 26] | 4.5 nM | 6.5 nM | 25 nM | 26 nM | 91 nM | 1.6 nM | 6.5 nM | 17 nM |  | > 100 nM |  | 21000 nM | 4.7x10^3 |  | 
Cc1cc(/C=C/C#N)cc(C)c1-n1cnc2cnc(Nc3ccc(C#N)cc3)nc21 [Analogue 27] | 0.2 nM | 0.4 nM | 0.7 nM | 1.5 nM | 9.6 ± 2.2 nM | 0.2 nM | 0.2 nM | 0.4 nM |  | 72 nM |  | 42000 nM | 2.1x10^5 |  | > 38000 nM
